Blank lines part the entries; values can stand above or below the compound they belong to.
Molecular target: PKMYT1 (Homo sapiens (Human), UniProt Q99640)
Experiment: PKMYT1 HTRF Assay
Assay type: binding
Conditions: Tracer 178, GST-Tb; compound 10 μM to 0.5 nM; read-out: MYT1 HTRF IC50
Summary of the method: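 Compound (final 10 μM to 0.5 nM) preincubated with PKMYT1 enzyme 15 min at 25° C, then Tracer 178 added for 60 min at 25° C. GST-Tb added, 15 min at 25° C, before HTRF readout.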

Chain of PKMYT1 (Q99640 whole entry): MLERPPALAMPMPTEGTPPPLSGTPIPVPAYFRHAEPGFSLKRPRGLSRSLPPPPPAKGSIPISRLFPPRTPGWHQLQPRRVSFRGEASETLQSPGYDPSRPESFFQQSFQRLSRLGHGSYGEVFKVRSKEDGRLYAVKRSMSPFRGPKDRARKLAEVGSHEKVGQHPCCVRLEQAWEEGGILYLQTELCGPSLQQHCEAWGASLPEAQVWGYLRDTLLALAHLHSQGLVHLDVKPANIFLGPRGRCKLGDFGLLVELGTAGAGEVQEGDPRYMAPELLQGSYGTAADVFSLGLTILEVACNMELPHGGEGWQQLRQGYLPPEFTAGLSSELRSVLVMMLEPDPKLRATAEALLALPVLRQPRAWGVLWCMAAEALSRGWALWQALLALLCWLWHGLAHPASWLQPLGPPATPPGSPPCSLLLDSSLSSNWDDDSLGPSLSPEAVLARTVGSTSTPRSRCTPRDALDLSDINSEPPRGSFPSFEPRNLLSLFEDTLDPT

IC50: 10 to 50 nM
SMILES: Cc1ncc(-c2[nH]c3ncc(-c4c(C)ccc(O)c4C)cc3c2Cl)cn1 [Example 79, 3-(3-chloro-2-(2-methylpyrimidin-5-yl)-1H-pyrrolo[2,3-b]pyridin-5-yl)-2,4-dimethylphenol]

SMILES: Cc1ccc(O)c(C)c1-c1cnc2[nH]c(-c3cncnc3)cc2c1C#N [Example 80, (R)-5-(3-hydroxy-2,6-dimethylphenyl)-2-(pyrimidin-5-yl)-1H-pyrrolo[2,3-b]pyridine-4-carbonitrile]
IC50: < 10 nM

SMILES: Cc1ccc(O)c(C)c1-c1cnc2[nH]c(-c3cnn(CCO)c3)cc2c1 [Example 81, 3-(2-(1-(2-hydroxyethyl)-1H-pyrazol-4-yl)-1H-pyrrolo[2,3-b]pyridin-5-yl)-2,4-dimethylphenol]
IC50: 50 to 500 nM

SMILES: Cc1ccc(O)c(C)c1-c1cnc2[nH]c(-c3cnc(N4CCOC4=O)nc3)c(Cl)c2c1C#N [Example 82, (R)-3-chloro-5-(3-hydroxy-2,6-dimethylphenyl)-2-(2-(2-oxooxazolidin-3-yl)pyrimidin-5-yl)-1H-pyrrolo[2,3-b]pyridine-4-carbonitrile]
IC50: < 10 nM

SMILES: Cc1ccc(O)c(C)c1-c1cnc2[nH]c(-c3cnc(OCC(O)CO)nc3)cc2c1C#N [Example 83, (5R)-2-(2-(2,3-dihydroxypropoxy)pyrimidin-5-yl)-5-(3-hydroxy-2,6-dimethylphenyl)-1H-pyrrolo[2,3-b]pyridine-4-carbonitrile]
IC50: < 10 nM

SMILES: Cc1ccc(O)c(C)c1-c1cnc2[nH]c(-c3cnc(N4CC[S@SP1](=O)(=O)CC4)nc3)c(Cl)c2c1C#N [Example 84, (R)-3-chloro-2-(2-(1,1-dioxidothiomorpholino)pyrimidin-5-yl)-5-(3-hydroxy-2,6-dimethylphenyl)-1H-pyrrolo[2,3-b]pyridine-4-carbonitrile]
IC50: < 10 nM

SMILES: Cc1ccc(O)c(C)c1-c1cnc2[nH]c(-c3cnc(OC(F)F)nc3)cc2c1C#N [Example 85, 2-(2-(difluoromethoxy)pyrimidin-5-yl)-5-(3-hydroxy-2,6-dimethylphenyl)-1H-pyrrolo[2,3-b]pyridine-4-carbonitrile]
IC50: < 10 nM

SMILES: Cc1ccc(O)c(C)c1-c1cnc2[nH]c(-c3cnc(C(C)(C)O)nc3)cc2c1C#N [Example 86, 5-(3-hydroxy-2,6-dimethylphenyl)-2-(2-(2-hydroxypropan-2-yl)pyrimidin-5-yl)-1H-pyrrolo[2,3-b]pyridine-4-carbonitrile]
IC50: < 10 nM

SMILES: C#Cc1cc(-c2cc3c(C#N)c(-c4c(C)ccc(O)c4C)cnc3[nH]2)cnc1N [Example 87, (R)-2-(6-amino-5-ethynylpyridin-3-yl)-5-(3-hydroxy-2,6-dimethylphenyl)-1H-pyrrolo[2,3-b]pyridine-4-carbonitrile]
IC50: < 10 nM

SMILES: Cc1ccc(O)c(C)c1-c1cnc2[nH]c(-c3cnc(C(C)(C)O)nc3)cc2c1 [Example 88, 3-(2-(2-(2-hydroxypropan-2-yl)pyrimidin-5-yl)-1H-pyrrolo[2,3-b]pyridin-5-yl)-2,4-dimethylphenol]
IC50: 10 to 50 nM

SMILES: Cc1ccc(O)c(C)c1-c1cnc2[nH]c(-c3cncc(N4CCC(O)CC4)c3)cc2c1C#N [Example 89, 5-(3-hydroxy-2,6-dimethylphenyl)-2-(5-(4-hydroxypiperidin-1-yl)pyridin-3-yl)-1H-pyrrolo[2,3-b]pyridine-4-carbonitrile]
IC50: < 10 nM

SMILES: CCc1c(O)ccc(C)c1-c1cnc2[nH]c(-c3cnc(C)nc3)cc2c1C#N [Example 90, 5-(2-ethyl-3-hydroxy-6-methylphenyl)-2-(2-methylpyrimidin-5-yl)-1H-pyrrolo[2,3-b]pyridine-4-carbonitrile]
IC50: 50 to 500 nM

SMILES: CCc1c(O)ccc(C)c1-c1cnc2[nH]c(-c3cnc(C)nc3)cc2c1C#N [Example 91, (R)-5-(2-ethyl-3-hydroxy-6-methylphenyl)-2-(2-methylpyrimidin-5-yl)-1H-pyrrolo[2,3-b]pyridine-4-carbonitrile]
IC50: 10 to 50 nM

SMILES: Cc1ncc(-c2cc3c(C#N)c(-c4c(C)ccc(O)c4C)cnc3[nH]2)c(N)n1 [Example 92, 2-(4-amino-2-methylpyrimidin-5-yl)-5-(3-hydroxy-2,6-dimethylphenyl)-1H-pyrrolo[2,3-b]pyridine-4-carbonitrile]
IC50: < 10 nM

SMILES: Cc1ccc(O)c(C)c1-c1cnc2[nH]c(-c3cnc(CN4CCCC4)nc3)cc2c1C#N [Example 93, (R)-5-(3-hydroxy-2,6-dimethylphenyl)-2-(2-(pyrrolidin-1-ylmethyl)pyrimidin-5-yl)-1H-pyrrolo[2,3-b]pyridine-4-carbonitrile]
IC50: < 10 nM

SMILES: Cc1ccc(O)c(C)c1-c1cnc2[nH]c(-c3cnc(CN4CC(F)(F)C4)nc3)cc2c1C#N [Example 94, (R)-2-(2-((3,3-difluoroazetidin-1-yl)methyl)pyrimidin-5-yl)-5-(3-hydroxy-2,6-dimethylphenyl)-1H-pyrrolo[2,3-b]pyridine-4-carbonitrile]
IC50: < 10 nM

SMILES: Cc1ccc(O)c(C)c1-c1cnc2[nH]c(-c3cnc(N(C)C4COC4)nc3)cc2c1C#N [Example 96, (R)-5-(3-hydroxy-2,6-dimethylphenyl)-2-(2-(methyl(oxetan-3-yl)amino)pyrimidin-5-yl)-1H-pyrrolo[2,3-b]pyridine-4-carbonitrile]
IC50: 10 to 50 nM

SMILES: Cc1ccc(O)c(C)c1-c1cnc2[nH]c(-c3cnc(N4CC(C)(O)C4)nc3)cc2c1C#N [Example 97, (R)-5-(3-hydroxy-2,6-dimethylphenyl)-2-(2-(3-hydroxy-3-methylazetidin-1-yl)pyrimidin-5-yl)-1H-pyrrolo[2,3-b]pyridine-4-carbonitrile]
IC50: < 10 nM

SMILES: Cc1ccc(O)c(C)c1-c1cnc2[nH]c(-c3cnc(NC4COC4)nc3)cc2c1C#N [Example 98, (R)-5-(3-hydroxy-2,6-dimethylphenyl)-2-(2-(oxetan-3-ylamino)pyrimidin-5-yl)-1H-pyrrolo[2,3-b]pyridine-4-carbonitrile]
IC50: < 10 nM

SMILES: Cc1ccc(O)c(C)c1-c1cnc2[nH]c(-c3cnc(N4C5CC[C@@H]4COC5)nc3)cc2c1C#N [Example 99, (5R)-2-(2-(3-oxa-8-azabicyclo[3.2.1]octan-8-yl)pyrimidin-5-yl)-5-(3-hydroxy-2,6-dimethylphenyl)-1H-pyrrolo[2,3-b]pyridine-4-carbonitrile]
IC50: < 10 nM

SMILES: Cc1ccc(O)c(C)c1-c1cnc2[nH]c(-c3cnc(N4CC(O)C(F)C4)nc3)cc2c1C#N [Example 100, (R)-2-(2-((3S,4S)-3-fluoro-4-hydroxypyrrolidin-1-yl)pyrimidin-5-yl)-5-(3-hydroxy-2,6-dimethylphenyl)-1H-pyrrolo[2,3-b]pyridine-4-carbonitrile]
IC50: < 10 nM

SMILES: Cc1ccc(O)c(C)c1-c1cnc2[nH]c(-c3cnc(NCCO)nc3)cc2c1C#N [Example 101, (R)-5-(3-hydroxy-2,6-dimethylphenyl)-2-(2-((2-hydroxyethyl)amino)pyrimidin-5-yl)-1H-pyrrolo[2,3-b]pyridine-4-carbonitrile]
IC50: < 10 nM

SMILES: Cc1ccc(O)c(C)c1-c1cnc2[nH]c(-c3cnc(NC4CC(O)C4)nc3)cc2c1C#N [Example 102, (R)-5-(3-hydroxy-2,6-dimethylphenyl)-2-(2-((3-hydroxycyclobutyl)amino)pyrimidin-5-yl)-1H-pyrrolo[2,3-b]pyridine-4-carbonitrile]
IC50: < 10 nM

IC50: < 10 nM
SMILES: CC#Cc1ncc(-c2cc3c(C#N)c(-c4c(C)ccc(O)c4C)cnc3[nH]2)cn1 [Example 104, (R)-5-(3-hydroxy-2,6-dimethylphenyl)-2-(2-(prop-1-yn-1-yl)pyrimidin-5-yl)-1H-pyrrolo[2,3-b]pyridine-4-carbonitrile]

SMILES: Cc1ccc(O)c(C)c1-c1cnc2[nH]c(-c3cnc(C(N)=O)nc3)cc2c1C#N [Example 105, (R)-5-(4-cyano-5-(3-hydroxy-2,6-dimethylphenyl)-1H-pyrrolo[2,3-b]pyridin-2-yl)pyrimidine-2-carboxamide]
IC50: < 10 nM

SMILES: Cc1ccc(O)c(C)c1-c1cnc2[nH]c(-c3cnc(N)nc3)c(C)c2c1C#N [Example 106, (R)-2-(2-aminopyrimidin-5-yl)-5-(3-hydroxy-2,6-dimethylphenyl)-3-methyl-1H-pyrrolo[2,3-b]pyridine-4-carbonitrile]
IC50: < 10 nM

SMILES: Cc1ncc(-c2[nH]c3ncc(-c4c(C)ccc(O)c4C)c(C#N)c3c2C2CC2)cn1 [Example 108, 3-cyclopropyl-5-(3-hydroxy-2,6-dimethylphenyl)-2-(2-methylpyrimidin-5-yl)-1H-pyrrolo[2,3-b]pyridine-4-carbonitrile]
IC50: 10 to 50 nM

SMILES: C#Cc1c(-c2cnc(C)nc2)[nH]c2ncc(-c3c(C)ccc(O)c3C)c(C#N)c12 [Example 109, (S)-3-ethynyl-5-(3-hydroxy-2,6-dimethylphenyl)-2-(2-methylpyrimidin-5-yl)-1H-pyrrolo[2,3-b]pyridine-4-carbonitrile]
IC50: < 10 nM

SMILES: Cc1ncc(-c2[nH]c3ncc(-c4c(C)ccc(O)c4C)c(C#N)c3c2C#CC(C)(C)O)cn1 [Example 110, (S)-5-(3-hydroxy-2,6-dimethylphenyl)-3-(3-hydroxy-3-methylbut-1-yn-1-yl)-2-(2-methylpyrimidin-5-yl)-1H-pyrrolo[2,3-b]pyridine-4-carbonitrile]
IC50: < 10 nM

SMILES: Cc1ncc(-c2[nH]c3ncc(-c4c(C)ccc(O)c4C)c(C#N)c3c2C#CC2(O)COC2)cn1 [Example 111, (S)-5-(3-hydroxy-2,6-dimethylphenyl)-3-((3-hydroxyoxetan-3-yl)ethynyl)-2-(2-methylpyrimidin-5-yl)-1H-pyrrolo[2,3-b]pyridine-4-carbonitrile]
IC50: < 10 nM

SMILES: Cc1ncc(-c2[nH]c3ncc(-c4c(C)ccc(O)c4C)c(C#N)c3c2C(F)(F)F)cn1 [Example 112, 5-(3-hydroxy-2,6-dimethylphenyl)-2-(2-methylpyrimidin-5-yl)-3-(trifluoromethyl)-1H-pyrrolo[2,3-b]pyridine-4-carbonitrile]
IC50: 10 to 50 nM

SMILES: Cc1ncc(-c2[nH]c3ncc(-c4c(C)ccc(O)c4C)c(C#N)c3c2Sc2ccccc2)cn1 [Example 113, 5-(3-hydroxy-2,6-dimethylphenyl)-2-(2-methylpyrimidin-5-yl)-3-(phenylthio)-1H-pyrrolo[2,3-b]pyridine-4-carbonitrile]
IC50: 50 to 500 nM
